Tested on: α-synuclein aggregate
Test: Test 2: suppressing the accumulation of α-synuclein aggregate in neurospheroid from PLA2G6 mutant human iPS cells
Format: cell-based
Conditions: compound added day 4, measured day 9, DMSO = 100%; for activity at 0.1 µM: 100 nM, read-out: Amount of aggregate (%) 100 nM; for activity at 1 µM: 1000 nM, read-out: Amount of aggregate (%) 1000 nM
Protocol: Test 2: Evaluation of Suppressing the Accumulation of α-Synuclein Aggregate with Neurospheroid Prepared from Human iPS Cells with a Mutation in PLA2G6 Gene
(1) Induction of Differentiation from Human iPS Cell to Neural Cell
Neural stem cells were induced from PLA2G6 gene mutant iPS cells with PSC Neuronal Induction Medium (Thermo Fisher Scientific Inc., cat #A1647801). Neurospheroid was prepared from the induced neural stem cells by three-dimensional culture system, and preserved with BrainPhys Neuronal Medium (STEMCELL Technologies, cat #ST-05793) comprising NeuroCult SM1 Neuronal Supplement, N2 Supplement-A, 20 ng/mL BDNF, 20 ng/mL GDNF, 1 mM dibutyryl cAMP, and 200 nM ascorbic acid. Half of the culture medium was replaced on day 2 and day 4 after the induction of differentiation.
The test compound was diluted with the culture medium so as to be twice the final concentration, and an equal volume of the twice-concentrated solution was added to each well when half of the culture medium was replaced on day 4 after induction of differentiation.
(2) Evaluation of the Amount of α-Synuclein Aggregate
From the neurospheroid 9 days after the induction of differentiation, proteins were extracted with a TBS solution containing 1% TritionX-100, and the extracted proteins were subjected to a protein analysis with Simple Western system (Protein Simple, Inc., cat #SM-W008) using an α-synuclein antibody (Thermo Fisher Scientific Inc., cat #AHB0261) to measure the amount of the α-synuclein aggregate.
Assuming that the amount of the aggregate in the neurospheroid added with a DMSO solution is 100%, the amount of the aggregate in the neurospheroid added with each test compound was evaluated.

Structure (SMILES)	activity at 0.1 µM [%]	activity at 1 µM [%]
Cc1ccn(C)/c(=N/C(=O)C2(C)COC2)c1 [Example 4]	10	120
CCC1(C(=O)/N=c2\cc(C)ccn2C)COC1 [Example 5]	113	91
Cn1ccc(C(F)(F)F)c/c1=N\C(=O)C1(C)COC1 [Example 6]	38	26
CCC1(C(=O)/N=c2\cc(C(F)(F)F)ccn2C)COC1 [Example 7]	40	66
COc1ccn(C)/c(=N/C(=O)C2(C)COC2)c1 [Example 8]	58	61
CCn1ccc(OC)c/c1=N\C(=O)C1(C)COC1 [Example 10]	25	8
CCn1ccc(OC)c/c1=N\C(=O)C1(CC)COC1 [Example 11]	65	7
CCOc1ccn(C)/c(=N/C(=O)C2(C)COC2)c1 [Example 12]	19	10
CCOc1ccn(C)/c(=N/C(=O)C2(CC)COC2)c1 [Example 13]	33	13
Cn1ccc(OC(F)(F)F)c/c1=N\C(=O)C1(C)COC1 [Example 14]	21	7
CCC1(C(=O)/N=c2\cc(OC(F)(F)F)ccn2C)COC1 [Example 15]	2	120
Cn1ccc(F)c/c1=N\C(=O)C1(C)COC1 [Example 16]	73	62
CCC1(C(=O)/N=c2\cc(F)ccn2C)COC1 [Example 17]	77	7
CCn1ccc(F)c/c1=N\C(=O)C1(C)COC1 [Example 18]	30	26
CCn1ccc(F)c/c1=N\C(=O)C1(CC)COC1 [Example 19]	112	19
Cn1ccc(Cl)c/c1=N\C(=O)C1(C)COC1 [Example 20]	16	49
CCC1(C(=O)/N=c2\cc(Cl)ccn2C)COC1 [Example 21]	37	7
CCn1ccc(Cl)c/c1=N\C(=O)C1(C)COC1 [Example 22]	28	48
CCn1ccc(Cl)c/c1=N\C(=O)C1(CC)COC1 [Example 23]	56	11
Cc1cc/c(=N\C(=O)C2(C)COC2)n(C)c1 [Example 24]	121	58
CCC1(C(=O)/N=c2\ccc(C)cn2C)COC1 [Example 25]	73	21
Cn1cc(C(F)(F)F)cc/c1=N\C(=O)C1(C)COC1 [Example 26]	23	38

Structure (SMILES)	activity at 0.1 µM [%]	activity at 1 µM [%]
CCC1(C(=O)/N=c2\ccc(C(F)(F)F)cn2C)COC1 [Example 27]	19	28
COc1cc/c(=N\C(=O)C2(C)COC2)n(C)c1 [Example 28]	47	98
CCC1(C(=O)/N=c2\ccc(OC)cn2C)COC1 [Example 29]	89	33
Cn1cc(F)cc/c1=N\C(=O)C1(C)COC1 [Example 30]	50	59
Cn1cc(Cl)cc/c1=N\C(=O)C1(C)COC1 [Example 32]	33	31
CCC1(C(=O)/N=c2\ccc(Cl)cn2C)COC1 [Example 33]	33	50
Cc1c/c(=N\C(=O)C2(C)COC2)n(C)cc1C [Example 34]	18	85
CCC1(C(=O)/N=c2\cc(C)c(C)cn2C)COC1 [Example 35]	95	97
Cc1c/c(=N\C(=O)C2(C)COC2)n(C)cc1F [Example 36]	13	16
CCC1(C(=O)/N=c2\cc(C)c(F)cn2C)COC1 [Example 37]	29	53
Cc1c/c(=N\C(=O)C2(C)COC2)n(C)cc1Br [Example 38]	21	33
CCC1(C(=O)/N=c2\cc(C)c(Br)cn2C)COC1 [Example 39]	15	94
CCC1(C(=O)/N=c2\cc(OC)c(Cl)cn2C)COC1 [Example 41]	18	45
Cn1cccc/c1=N\C(=O)C1CCN(CC(F)(F)F)CC1 [Example 42]	82	96
Cn1cccc/c1=N\C(=O)C1(C)CNC1 [Example 43, 3-Methyl-N-[(2E)-1-methylpyridin-2(1H)-ylidene]azetidine-3-carboxamide]	49	57
COc1ccn(C)/c(=N/C(=O)C2(C)CNC2)c1 [Example 44]	23	10
CCn1ccc(OC)c/c1=N\C(=O)C1(C)CNC1 [Example 45]	25	35
Cn1cc(F)cc/c1=N\C(=O)C1(C)CNC1 [Example 46]	85	49
Cc1cc/c(=N\C(=O)C2(C)CNC2)n(C)c1 [Example 47]	25	40
Cn1cc(C(F)(F)F)cc/c1=N\C(=O)C1(C)CNC1 [Example 48]	63	68
CN1CC(C)(C(=O)/N=c2\ccccn2C)C1 [Example 49, 1,3-Dimethyl-N-[(2E)-1-methylpyridin-2(1H)-ylidene]azetidine-3-carboxamide]	78	74
CCn1ccc(OC)c/c1=N\C(=O)C1(C)CN(C)C1 [Example 52]	68	60

Structure (SMILES)	activity at 0.1 µM [%]	activity at 1 µM [%]
CCOc1ccn(C)/c(=N/C(=O)C2(C)CN(C)C2)c1 [Example 53]	16	92
CN1CC(C)(C(=O)/N=c2\cc(OC(F)(F)F)ccn2C)C1 [Example 54]	18	13
Cc1cc/c(=N\C(=O)C2(C)CN(C)C2)n(C)c1 [Example 55]	92	74
CN1CC(C)(C(=O)/N=c2\ccc(F)cn2C)C1 [Example 56]	30	68
Cc1c/c(=N\C(=O)C2(C)CN(C)C2)n(C)cc1C [Example 57]	13	31
Cc1c/c(=N\C(=O)C2(C)CN(C)C2)n(C)cc1F [Example 58]	36	17
Cc1c/c(=N\C(=O)C2(C)CN(C)C2)n(C)cc1Br [Example 59]	6	4
Cn1cccc/c1=N\C(=O)N1CCOCC1 [Example 61, N-[(2E)-1-methylpyridin-2(1H)-ylidene]morpholine-4-carboxamide]	73	53
Cn1cccc/c1=N\C(=O)C1CCCO1 (centres unmarked) [Example 62]	76	79
Cn1cccc/c1=N\C(=O)C1CCOC(C)(C)C1 (centres unmarked) [Example 64]	69	72
CN1CCC(C(=O)/N=c2\ccccn2C)CC1 [Example 65]	86	67
Cn1cccc/c1=N\C(=O)C1CNC1 [Example 66]	61	66
Cn1cccc/c1=N\C(=O)C1CCNC1 (centres unmarked) [Example 67]	62	72
Cn1cccc/c1=N\C(=O)C1CCNCC1 [Example 68]	80	31
CN1CC(C(=O)/N=c2\ccccn2C)C1 [Example 69]	89	41
CN1CCC(C(=O)/N=c2\ccccn2C)C1 (centres unmarked) [Example 70]	77	31
CC(C)N1CC(C)(C(=O)/N=c2\ccccn2C)C1 [Example 71, 3-Methyl-N-[(2E)-1-methylpyridin-2(1H)-ylidene]-1-(propan-2-yl)azetidine-3-carboxamide]	64	73
Cn1cccc/c1=N\C(=O)C1(C)CN(C2CC2)C1 [Example 72, 1-Cyclopropyl-3-methyl-N-[(2E)-1-methylpyridin-2(1H)-ylidene]azetidine-3-carboxamide]	64	75
Cn1cccc/c1=N\C(=O)C1(C)CN(CC(F)(F)F)C1 [Example 73, 3-Methyl-N-[(2E)-1-methylpyridin-2(1H)-ylidene]-1-(2,2,2-trifluoroethyl)azetidine-3-carboxamide]	79	76
Cn1cccc/c1=N\C(=O)N1CCOCC1(C)C [Example 74, 3,3-Dimethyl-N-[(2E)-1-methylpyridin-2(1H)-ylidene]morpholine-4-carboxamide]	30	64

Reference: patent publication US20260042746A1, “2(1H)-PYRIDINIMINE DERATIVE” (SUMITOMO PHARMA CO., LTD., priority 2022, published 2026)
